Measurements published in patent US20150174145A1, “Pharmaceutical compounds with the structure of ionic salts with antibiotic and anticancer action” (priority 2013, published 2015).
Read-outs that look alike come from different tables or passages of the source.

Legend:
E. coli ATCC 25922 = test: Minimum inhibitory concentration, ampicillin sensitive strains; type: cell-based, Escherichia coli; details: for Minimum inhibitory concentrations: E. coli ATCC 25922, Gram-negative, ampicillin sensitive
Protocol: (§1) Each one of the 24 combinations of the ionic liquids were tested with following 9 bacteria: • Escherichia coli ATCC25922 • Staphylococcus aureus ATCC25923 • Klebsiella pneumonia • Staphylococcus epidermidis • Enterococcus fecalis • E. coli Tem CTXM9 • E. coli CTXM2 • E. coli AmpCMox2 • Saccharomyces cerevisiae PYCC 4072
(§2) These bacteria were tested in Vitek2 systems from bioMérieux. Bacteria were grown on Trypticase soy agar for 24 hours at 37° C. prior to each test. The bacteria assays were made in Tryptic Soy Broth.

S. epidermis = test: as above; type: cell-based, Staphylococcus epidermidis; details: for Minimum inhibitory concentrations: S. epidermis, Gram-positive, ampicillin sensitive
Protocol: as §1, §2

E. coli AmpC MOX2 = test: microbe, parasite or virus in culture; type: cell-based; details: for Minimum inhibitory concentrations: E. coli AmpC MOX2, ampicillin resistant
Protocol: as §1, §2

S. aureus ATCC 25923 = test: Minimum inhibitory concentration, ampicillin sensitive strains; type: cell-based, Staphylococcus aureus; details: for Minimum inhibitory concentrations: S. aureus ATCC 25923, Gram-positive, ampicillin sensitive
Protocol: as §1, §2

K. pneumoniae = test: as above; type: cell-based, Klebsiella pneumonia; details: for Minimum inhibitory concentrations: K. pneumoniae, Gram-negative, ampicillin sensitive
Protocol: as §1, §2

E. coli CTX M2 = test: Minimum inhibitory concentration, ampicillin resistant strains; type: cell-based; details: for Minimum inhibitory concentrations: E. coli CTX M2, ampicillin resistant
Protocol: as §1, §2

E. coli TEM CTX M9 = test: as above; type: cell-based; details: for Minimum inhibitory concentrations: E. coli TEM CTX M9, ampicillin resistant
Protocol: as §1, §2

E. fecalis = test: Minimum inhibitory concentration, ampicillin sensitive strains; type: cell-based, Enterococcus fecalis; details: for Minimum inhibitory concentrations: E. fecalis, Gram-positive, ampicillin sensitive
Protocol: as §1, §2

[1] = test system: PC3 (prostate cancer cell line); test: MTT cellular viability/proliferation, cancer cell lines; type: cell-based, human; details: PC3, MTT assay
Protocol: (§3) At about 70-80% confluence, cells were enzymatically detached with 0.05% trypsin and 0.5 mM EDTA and seeded at 10^4 cells cm^−2.
(§4) After an attachment period of 24 hours, the culture medium was renewed, and supplemented with different concentrations (0.005-500 mM) of the ampicillin derived ionic liquid. Cell cultures were maintained in a 5% CO2 humidified atmosphere at 37° C.
(§5) Cellular viability/proliferation was assessed by the MTT assay at days 1, 3 and 5 of the culture. This assay is based on the reduction of 3-(4,5-dimethylthiazol-2-yl)-2,5-diphenyltetrazolium bromide (MTT) to a purple formazan product by viable cells.
(§6) Shortly, cultured cells were incubated at 37° C. with 0.5 mg ml −1 of MTT for 4 hours. The culture medium was then removed; the stained product dissolved with dimethylsulfoxide, and absorbance determined at 550 nm in an ELISA plate rewader. Results were expressed as absorbance per cm2.
(§7) The values of the […] (IC50) and the median lethal dose (LD50) were obtained from nonlinear regression analysis of concentration effect curves using the GGraphPad Prism Software.
(§8) It is used to measure the efficacy of a compound in inhibiting any biochemical or biological function.

[2] = test system: RKO (colon cancer cell line); test: as above; type: cell-based, human; details: MTT assay
Protocol: as §3, §4, §5, §6, §7, §8

[3] = test system: gingival fibroblasts (GF); test: MTT cellular viability/proliferation, primary human cells; type: cell-based; details: MTT assay
Protocol: as §3, §4, §5, §6, §7, §8

[4] = test system: MG63 (osteosarcoma cell line); test: MTT cellular viability/proliferation, cancer cell lines; type: cell-based, human; details: MG63, MTT assay
Protocol: as §3, §4, §5, §6, §7, §8

[5] = test system: T47D (ductal breast epithelial tumour cell line); test: cells; type: cell-based
Protocol: as §3, §4, §5, §6, §7, §8

SF (skin fibroblasts) = test: MTT cellular viability/proliferation, primary human cells; type: cell-based; details: MTT assay
Protocol: as §3, §4, §5, §6, §7, §8

[6] = test system: HepG2 (hepatocellular liver carcinoma cell); test: MTT cellular viability/proliferation, cancer cell lines; type: cell-based, human; details: HepG2, MTT assay
Protocol: as §3, §4, §5, §6, §7, §8

Row | Structure (SMILES) | Minimum inhibitory concentrations (E. coli ATCC 25922) [mM] | Minimum inhibitory concentrations (S. epidermis) [mM] | Minimum inhibitory concentrations (E. coli AmpC MOX2) [mM] | Minimum inhibitory concentrations (S. aureus ATCC 25923) [mM] | Minimum inhibitory concentrations (K. pneumoniae) [mM] | Minimum inhibitory concentrations (E. coli CTX M2) [mM] | Minimum inhibitory concentrations (E. coli TEM CTX M9) [mM] | Minimum inhibitory concentrations (E. fecalis) [mM] | IC50 [1] [nM] | IC50 [2] [nM] | IC50 [3] [nM] | IC50 [4] [nM] | other results
1 | CCCCCCCCCCCCCCCC[n+]1ccccc1.[Cl-] [[C16Pyr][Cl]] | 0.5 | 2.5 | >5 | 0.5 | 2.5 | >5 | 0.5 | 0.5 | – | – | – | – | –
2 | CC1(C)S[C@@H]2[C@H](NC(=O)[C@H](N)c3ccccc3)C(=O)N2[C@H]1C(=O)[O-].CC[n+]1ccn(C)c1 [[EMIM][Amp]] | >5 | >5 | >5 | >5 | >5 | >5 | >5 | >5 | 30000 | 269 | 853 | – | –
3 | CCCCCCCCCCCCCC[P+](CCCCCC)(CCCCCC)CCCCCC.[Cl-] [[P6,6,6,14][Cl]] | 2.5 | 2.5 | >5 | 2.5 | 2.5 | 5 | 2.5 | >5 | – | – | – | – | –
4 | CCn1cc[n+](C)c1.[Br-] [[EMIM][Br]] | >5 | 5 | >5 | 0.05 | >5 | >5 | 5 | >5 | – | – | – | – | –
5 | CC1(C)S[C@@H]2[C@H](NC(=O)[C@H](N)c3ccccc3)C(=O)N2[C@H]1C(=O)[O-].CC[N+](CC)(CC)CC [[TEA][Amp], tetraethyl ammonium salt of Ampicillin] | >5 | >5 | >5 | >5 | >5 | >5 | >5 | >5 | 35600 | 56700 | – | 30 | IC50 [5]: 42 nM
6 | CC1(C)S[C@@H]2[C@H](NC(=O)[C@H](N)c3ccccc3)C(=O)N2[C@H]1C(=O)[O-].CCCCCCCCCCCCCCCC[n+]1ccccc1 [[C16Pyr][Amp]] | 0.5 | 0.005 | >5 | 0.005 | 0.05 | 0.05 | 0.005 | 0.005 | – | 226 | 12 | 11 | IC50 (SF (skin fibroblasts)): 32 nM; IC50 ([5]; T47D, MTT assay): 5 nM
7 | CC[N+](CC)(CC)CC [[TEA][Br], Tetraethylammonium bromide] | – | – | – | – | – | – | – | – | – | – | – | – | MIC (E. coli ATCC 25922; Escherichia coli, ATCC25922, read-out: Minimum inhibitory concentrations): > 5 mM; MIC (S. epidermis; Staphylococcus epidermidis, read-out: Minimum inhibitory concentrations): > 5 mM; MIC (E. coli AmpC MOX2; Escherichia coli, AMPCMOX2, read-out: Minimum inhibitory concentrations, E. coli AmpC MOX2, ampicillin resistant): > 5 mM; MIC (S. aureus ATCC 25923; Staphylococcus aureus, ATCC25923, read-out: Minimum inhibitory concentrations): 2.5 mM; MIC (K. pneumoniae; Klebsiella pneumoniae, read-out: Minimum inhibitory concentrations): > 5 mM; MIC (E. coli CTX M2; Escherichia coli, CTXM2, read-out: Minimum inhibitory concentrations): 2.5 mM; MIC (E. coli TEM CTX M9; Escherichia coli, read-out: Minimum inhibitory concentrations): > 5 mM; MIC (E. fecalis; Enterococcus, read-out: Minimum inhibitory concentrations): > 5 mM
8 | CC1(C)S[C@@H]2[C@H](NC(=O)[C@H](N)c3ccccc3)C(=O)N2[C@H]1C(=O)[O-].C[N+](C)(C)CCO [[Cholin][Amp]] | >5 | >5 | >5 | >5 | >5 | >5 | >5 | >5 | 982 | – | – | 17 | IC50 [6]: 1620 nM; IC50 (SF (skin fibroblasts)): 48500 nM
9 | C[N+](C)(C)CCO.[Cl-] [[Cholin][Cl]] | >5 | >5 | >5 | 2.5 | >5 | >5 | >5 | >5 | – | – | – | – | –
10 | CC1(C)S[C@@H]2[C@H](NC(=O)[C@H](N)c3ccccc3)C(=O)N2[C@H]1C(=O)[O-].C[n+]1ccn(CCO)c1 [[C2OHMIM][Amp]] | 5 | 2.5 | 5 | >5 | >5 | >5 | >5 | 5 | – | 359 | 462 | 738 | IC50 [6]: 319 nM; IC50 (SF (skin fibroblasts)): 5080 nM; IC50 ([5]; T47D, MTT assay): 146 nM
11 | CC1(C)S[C@@H]2[C@H](NC(=O)[C@H](N)c3ccccc3)C(=O)N2[C@H]1C(=O)[O-].[Na+] [[Na][Amp]] [sodium ampicillin] | 0.05 | 0.05 | >5 | 0.005 | 2.5 | >5 | >5 | 0.05 | 597 | 2410 | 109000 | – | –
12 | C[n+]1ccn(CCO)c1.[Cl-] [[C2OHMIM][Cl]] | 5 | 5 | 5 | >5 | >5 | 2.5 | >5 | 5 | – | – | – | – | –
